The data set deals with Apis mellifera. Nature of the data set: Tunnel test / spray application / bees: acute mortality of pupae in front of the hive. Type of data set: in vivo. An excerpt: Der Test wurde gemäß EPPO (European Plant Protection Organisation) Leitlinie 170 wie folgt durchgeführt:
Tabelle 2 (siehe auch Figur 2)

On to `O=C1C=C(N(Cc2ccc(Cl)nc2)CC(F)F)CO1` [I-5, 4-{[(6-Chlorpyrid-3-yl)methyl](2,2-difluorethyl)amino}furan-2(5H)-on], for which the “Zahl toter Puppen” value runs as follows: (75 g a.s./ha, 0 DAA c (17:15 Uhr)) 0; (75 g a.s./ha, 1 DAA) 0; (75 g a.s./ha, 2 DAA) 0,3; (75 g a.s./ha, 5 DAA) 0; (75 g a.s./ha, 6 DAA) 0; (75 g a.s./ha, 11 DAA) 0,3. Moreover, the “Zahl toter Puppen” value reads like this: (75 g a.s./ha, 14 DAA) 0; (75 g a.s./ha, 18 DAA) 0; (75 g a.s./ha, 21 DAA) 0; (75 g a.s./ha, 25 DAA) 0; (75 g a.s./ha, -3 DAA (before application)) 0; (150 g a.s./ha, 0 DAA c (17:15 Uhr)) 0. The “Zahl toter Puppen” value was 0 (150 g a.s./ha, 1 DAA); 0 (150 g a.s./ha, 2 DAA); 0 (150 g a.s./ha, 5 DAA); 0 (150 g a.s./ha, 6 DAA); 0 (150 g a.s./ha, 11 DAA); 0,7 (150 g a.s./ha, 14 DAA). Further, the “Zahl toter Puppen” value amounted to 0 (150 g a.s./ha, 18 DAA); 0 (150 g a.s./ha, 21 DAA); 0 (150 g a.s./ha, 25 DAA); 0 (150 g a.s./ha, -3 DAA (before application)). In addition, the “Mortalität von Puppen vor dem Bienenstock” value (result in words, tunnel test, spray, I-5 75 und 150 g a.s./ha, Fenoxycarb 150 g a.s./ha) is on record as “keine Mortalität”.

These data come from patent EP2193713A1, “Method for fighting animal pests without damaging pollinating insects” (Bayer CropScience AG, priority 2008, dated 2010).
